IC50 data for 8 molecules are collected here from patent US20150284394A1, “INHIBITORS OF BRUTON'S TYROSINE KINASE” (HOFFMANN-LA ROCHE INC., priority 2012, published 2015).

In assay [1] the target is Bruton's Tyrosine Kinase (Homo sapiens, UniProt Q06187). Kind of assay: Bruton's Tyrosine Kinase (BTK) Inhibition TR-FRET competition assay. Type of assay: binding. To be noted: inactivated state of BTK; Kinase Tracer 178; 18-24 h at 14° C. The method, then: This BTK competition assay measures compound potency (IC50) for the inactivated state of Bruton's Tyrosine Kinase using FRET (Forster/Fluorescence Resonance Energy Transfer) technology. The BTK-Eu complex was incubated on ice one hour prior to use at a starting concentration of 50 nM BTK-Bioease™: 10 nM Eu-streptavidin (Perkin-Elmer Catalog# AD0062). The assay buffer consisted of 20 mM HEPES (pH 7.15), 0.1 mM DTT, 10 mM MgCl2, 0.5 mg/ml BSA with 3% Kinase Stabilizer (Fremont Biosolutions, Catalog # STB-K02). After 1 h, the reaction mixture from above was diluted 10 fold in assay buffer to make 5 nM BTK: 1 nM Eu-Streptavidin complex (donor fluorophore). […] of a mixture of 0.11 nM BTK-Eu and 0.11 nM Kinase Tracer 178 (Invitrogen, Catalog # PV5593,) with BTK-Eu alone as no negative control, was then dispensed into 384-well flat bottom plates (Greiner, 784076). Compounds to be tested in assay were prepared as 10× concentrations and serial dilution in half-log increments was performed in DMSO so as to generate 10 point curves. To initiate the FRET reaction, compounds prepared as 10× stock in DMSO was added to the plates and the plates were incubated 18-24 h at 14° C.
After the incubation the plates were read on a BMG Pherastar Fluorescent plate reader (or equivalent) and used to measure the emission energy from the europium donor fluorophore (620 nm emission) and the FRET (665 nm emission). The negative control well values were averaged to obtain the mean minimum. The positive “no inhibitor” control wells were averaged to obtain the mean maximum. Percent of maximal FRET was calculated using following equation:
% max FRET=100×[(FSRcmpd−FSRmean min)/(FSRmean max−FSRmean min)]
where FSR=FRET Signal ratio. % Max FRET curves were plotted in Activity Base (Excel) and the IC50(%), hill slope, z′ and % CV were determined. The mean IC50 and standard deviation will be derived from duplicate curves (singlet inhibition curves from two independent dilutions) using Microsoft Excel.
(In general: In TR-FRET formats the signal depends on donor and acceptor labels being close together.)

The subject of assay [2] is B cells in human blood. Nature of the assay: Inhibition of B cell activation in whole blood measured by CD69 expression. Type of assay: cell-based. To be noted: anti-IgM stimulation, 20 hours, CD69-positive cells that are also CD20-positive, read-out: HWB IC50. On the procedure: A procedure to test the ability of Btk inhibitors to suppress B cell receptor-mediated activation of B cells in human blood is as follows:
Human whole blood (HWB) is obtained from healthy volunteers, with the following restrictions: 24 hr drug-free, non-smokers. Blood is collected by venipuncture into Vacutainer tubes anticoagulated with sodium heparin. Test compounds are diluted to ten times the desired starting drug concentration in PBS (20×), followed by three-fold serial dilutions in 10% DMSO in PBS to produce a nine point dose-response curve. 5.5 μl of each compound dilution is added in duplicate to a 2 ml 96-well V bottom plate (Analytical Sales and Services, #59623-23); 5.5 μl of 10% DMSO in PBS is added to control and no-stimulus wells. HWB (100 μl) is added to each well, and after mixing the plates are incubated at 37 C, 5% CO2, 100% humidity for 30 minutes. Goat F(ab′)2 anti-human IgM (Southern Biotech, #2022-14) (10 μl of a 500 μg/ml solution, 50 μg/ml final concentration) is added to each well (except the no-stimulus wells) with mixing and the plates are incubated for an additional 20 hours.
At the end of the 20 hour incubation, samples are incubated with florescent-probe-labeled anti-bodies (15 μl PE Mouse anti-Human CD20, BD Pharmingen, #555623, and/or 20 ul APC Mouse anti-Human CD69, BD Pharmingen #555533) for 30 minutes, at 37 C, 5% CO2, 100% humidity. Included are induced control, unstained and single stains for compensation adjustments and initial voltage settings. Samples are then lysed with 1 ml of 1× Pharmingen Lyse Buffer (BD Pharmingen #555899), and plates are centrifuged at 1800 rpm for 5 minutes. Supernatants are removed via suction and the remaining pellets are lysed again with another 1 ml of 1× Pharmingen Lyse Buffer, and plates are spun down as before. Supernatants are aspirated and remaining pellets are washed in FACs buffer (PBS+1% FBS). After a final spin, the supernantants are removed and pellets are resuspended in 180 μl of FACs buffer. Samples are transferred to a 96 well plate suitable to be run on the HTS 96 well system on the BD LSR II flow cytometer.
Using appropriate excitation and emission wavelengths for the fluorophores used, data are acquired and percent positive cell values are obtained using Cell Quest Software. Results are initially analyzed by FACS analysis software (Flow Jo). […] The IC50 values are calculated using XLfit software version 3, equation 201.

Chain of Bruton's Tyrosine Kinase (Q06187 whole entry): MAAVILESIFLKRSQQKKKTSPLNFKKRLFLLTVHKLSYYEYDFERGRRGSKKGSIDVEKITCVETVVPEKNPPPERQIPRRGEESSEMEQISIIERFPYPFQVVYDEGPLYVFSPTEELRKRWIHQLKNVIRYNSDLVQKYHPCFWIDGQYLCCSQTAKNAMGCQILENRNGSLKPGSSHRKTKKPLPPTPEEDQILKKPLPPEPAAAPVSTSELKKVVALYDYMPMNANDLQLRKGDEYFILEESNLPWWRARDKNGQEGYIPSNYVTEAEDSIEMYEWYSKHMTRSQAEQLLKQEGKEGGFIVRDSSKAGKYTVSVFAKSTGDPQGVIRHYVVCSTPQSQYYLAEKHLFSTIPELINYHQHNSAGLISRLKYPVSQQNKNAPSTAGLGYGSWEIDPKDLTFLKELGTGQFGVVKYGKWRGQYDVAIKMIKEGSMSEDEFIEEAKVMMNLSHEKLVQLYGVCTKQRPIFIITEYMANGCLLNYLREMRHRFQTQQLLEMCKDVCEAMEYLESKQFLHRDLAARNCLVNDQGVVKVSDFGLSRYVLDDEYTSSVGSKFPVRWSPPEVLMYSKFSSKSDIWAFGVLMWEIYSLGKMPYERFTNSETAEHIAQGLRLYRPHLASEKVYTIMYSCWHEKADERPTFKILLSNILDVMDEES

In general, IC50 refers to the concentration that inhibits the measured activity by half. For the molecule `CC(C)(C)c1ccc(C(=O)NCc2ccc(-c3ncnc4[nH]c(-c5cnn(CC(=O)O)c5)cc34)cc2F)cc1` [Compound I-46, [4-(4-{4-[(4-tert-Butyl-benzoylamino)-methyl]-3-fluoro-phenyl}-7H-pyrrolo[2,3-d]pyrimidin-6-yl)-pyrazol-1-yl]-acetic acid], the values for the IC50 in assay [1] and in assay [2] were 1 nM and over 50000 nM, respectively.

Take `Cn1cc(-c2cc3c(-c4ccc(CNC(=O)c5nc(C(C)(C)C)no5)c(F)c4)ncnc3[nH]2)cn1` [Compound I-49, 3-tert-Butyl-[1,2,4]oxadiazole-5-carboxylic acid 2-fluoro-4-[6-(1-methyl-1H-pyrazol-4-yl)-7H-pyrrolo[2,3-d]pyrimidin-4-yl]-benzylamide]: the IC50 was determined as 0.11 nM in assay [1] and 2 nM in assay [2].

With `Cn1cc(-c2cc3c(-c4ccc(CNC(=O)c5ccc(C(C)(C)C#N)cc5)c(F)c4)ncnc3[nH]2)cn1` [Compound I-36, 4-(Cyano-dimethyl-methyl)-N-{2-fluoro-4-[6-(1-methyl-1H-pyrazol-4-yl)-7H-pyrrolo[2,3-d]pyrimidin-4-yl]-benzyl}-benzamide], the IC50 was 4 nM in assay [1] and 6740 nM in assay [2].

On to `Cn1cc(-c2cc3c(-c4ccc(CNC(=O)c5ccc(C6(C)COC6)cc5)cc4)ncnc3[nH]2)cn1` [Compound I-25, 4-(3-Methyl-oxetan-3-yl)-N-{4-[6-(1-methyl-1H-pyrazol-4-yl)-7H-pyrrolo[2,3-d]pyrimidin-4-yl]-benzyl}-benzamide], for which the IC50 in assay [1] stood at 44 nM; in assay [2] it was 28900 nM.

As to `Cn1cc(-c2cc3c(-c4ccc(CNC(=O)N5CC(OC(C)(C)C)C5)c(F)c4)ncnc3[nH]2)cn1` [Compound I-40, 3-tert-Butoxy-azetidine-1-carboxylic acid 2-fluoro-4-[6-(1-methyl-1H-pyrazol-4-yl)-7H-pyrrolo[2,3-d]pyrimidin-4-yl]-benzylamide], the results for the IC50 in assay [1] and in assay [2] were 0.6 nM and 52 nM, respectively.

Regarding `CCOC(=O)Cn1cc(-c2cc3c(-c4ccc(CNC(=O)c5ccc(C(C)(C)C)cc5)c(F)c4)ncnc3[nH]2)cn1` [Compound I-45, [4-(4-{4-[(4-tert-Butyl-benzoylamino)-methyl]-3-fluoro-phenyl}-7H-pyrrolo[2,3-d]pyrimidin-6-yl)-pyrazol-1-yl]-acetic acid ethyl ester], the values for the IC50 in assay [1] and in assay [2] were 0.6 nM and 222 nM, respectively.

For the molecule `Cn1cc(-c2cc3c(-c4ccc(CNC(=O)c5ccc(C(C)(C)C)cc5)c(F)c4)ncnc3[nH]2)cn1` [Compound I-27, 4-tert-Butyl-N-{2-fluoro-4-[6-(1-methyl-1H-pyrazol-4-yl)-7H-pyrrolo[2,3-d]pyrimidin-4-yl]-benzyl}-benzamide], the IC50 in assay [1] was found to be 2 nM; in assay [2] it was 812 nM.

Consider `CC(C)(C)c1ccc(C(=O)NCc2ccc(-c3ncnc4[nH]c(-c5cnn(CCO)c5)cc34)cc2F)cc1` [Compound I-30, 4-tert-Butyl-N-(2-fluoro-4-{6-[1-(2-hydroxy-ethyl)-1H-pyrazol-4-yl]-7H-pyrrolo[2,3-d]pyrimidin-4-yl}-benzyl)-benzamide], for which the IC50 in assay [1] was 0.7 nM; in assay [2], 1040 nM.
